Assay results: patent publication US20250161216A1, “CATIONIC LIPID ANALOGUES, COMPOSITIONS AND USES THEREOF” (GUANGZHOU LIDE BIOMEDICINE TECHNOLOGY CO., LTD., priority 2022, published 2025)

Test system: C57BL/6 mice
Assay: In vivo expression level of Luciferase-mRNA delivered by intravenous injection (bioluminescence imaging)
Conditions: mRNA-loaded nanoparticles, intravenous (tail vein), 5 μg Luciferase-mRNA, 6 hours; for Fluorescence intensity of liver: compounds of Example 1
Method: Luciferase-mRNA was used as an mRNA model; and the cationic lipid analogues of Examples 1-5 were used to prepare drug-loaded nanoparticles according to the method of Example 6.
200 μL of nanoparticles containing 5 μg Luciferase-mRNA or the drug-loaded nanoparticles prepared above were injected into tail veins of 6-8 week-old C57BL/6 mice, and 200 μL of 1×PBS solution containing 3 mg D-Luciferin potassium salt was intraperitoneally injected into the mice 6 hours later. After waiting for 10 minutes, an in vivo expression level of the mRNA was evaluated by bioluminescence imaging.

Compound	Fluorescence intensity of liver	further results
CCCCCCCC/C=C\CCCCCCCC(=O)N(CCCN(C)C)C(C(=O)NCCN(C)CCNC(=O)C(C(CC)CCCC)N(CCCN(C)C)C(=O)CCCCCCC/C=C\CCCCCCCC)C(CC)CCCC (stereo not shown) [A4I4R2C18-1]		Fluorescence intensity of spleen (compounds of Example 2): 1.13E+03
CCCCCCCCCCCCSSCCC(=O)N(CCO)C(C(=O)NCCN(CCNC(=O)C(C(C)C)N(CCO)C(=O)CCSSCCCCCCCCCCCC)CCNC(=O)C(C(C)C)N(CCO)C(=O)CCSSCCCCCCCCCCCC)C(C)C (stereo not shown) [A1I5R22S17]		Fluorescence intensity of spleen (compounds of Example 3): 6.40E+05
CCCCCCCCCCCCC#CC#CCCCCCCCCC(=O)N(CCCN(C)C)C(C(=O)NCCCCCCCCCCCCCCCCCC)C(C)C (stereo not shown) [A1I18R2C23]	2.70E+05	
CCCCCCCC/C=C\CCCCCCCC(=O)N(CCN1CCCCCC1)C(C(=O)NCCN(C)CCNC(=O)C(C1CC1)N(CCN1CCCCCC1)C(=O)CCCCCCC/C=C\CCCCCCCC)C1CC1 (stereo not shown) [A21I4R13C18-1]		Bioluminescence intensity (compounds of Example 2): 9.59E+02
CCCCCCCC/C=C\CCCCCCCC(=O)N(CCCN(C)C)C(C(=O)NCCCCCCCCCCCCCCCCCC)C1CCCCC1 (stereo not shown) [A23I18R2C18-1]	1.29E+06	
CCCCCCCCCCCCCCCCCCNC(=O)C(C(C)C)N(CCCN(CC)CC)C(=O)CCCCCCCCCCCCCCCCC (stereo not shown) [A1I18R3C18]	3.91E+03	
CCCCCCCC/C=C\CCCCCCCC(=O)N(CCN(C)C)C(C(=O)NCCCCCCCCCCCCCCCCCC)C1CCCCC1 (stereo not shown) [A23I18R1C18-1]	5.74E+06	
CCCCCCSSCCC(=O)N(CCO)C(C(=O)NCCN(C)CCNC(=O)C(C(C)C)N(CCO)C(=O)CCSSCCCCCC)C(C)C (stereo not shown) [A1I4R22S11]		Fluorescence intensity of spleen (compounds of Example 2): 1.00E+03
CC/C=C\C/C=C\C/C=C\CCCCCCCC(=O)N(CCN(C)C)C(C(=O)NCCCCCCCCCCCCCCCCCC)C1CCCCC1 (stereo not shown) [A23I18R1C18-3]	4.14E+06	
CCCCCCCC/C=C\CCCCCCCC(=O)N(CCCN(C)C)C(C(=O)NCCN(C)CCNC(=O)C(C1CC1)N(CCCN(C)C)C(=O)CCCCCCC/C=C\CCCCCCCC)C1CC1 (stereo not shown) [A21I4R2C18-1]		Bioluminescence intensity (compounds of Example 2): 8.38E+02
CCCCCCCC(=O)N(CCO)C(C(=O)NCCN(CCNC(=O)C(C(C)C)N(CCO)C(=O)CCCCCCC)CCNC(=O)C(C(C)C)N(CCO)C(=O)CCCCCCC)C(C)C (stereo not shown) [A1I5R22C8]		Fluorescence intensity of spleen (compounds of Example 3): 1.50E+05
CCCCCCCCCCCCCCCCCC(=O)N(CCN1CCCCCC1)C(C(=O)NCCN(C)CCNC(=O)C(C(CC)CCCC)N(CCN1CCCCCC1)C(=O)CCCCCCCCCCCCCCCCC)C(CC)CCCC (stereo not shown) [A4I4R13C18]		Fluorescence intensity of spleen (compounds of Example 2): 2.79E+03
CCCCC/C=C\C/C=C\CCCCCCCC(=O)N(CCN(C)CC)C(C(=O)NCCCCCCCCCCCCCCCCCC)C(CC)CCCC (stereo not shown) [A4I18R6C18-2]	3.64E+04	
CCCCCCCCCCCCCCCCCCNC(=O)C(C(C)C)N(CCN(C)C)C(=O)CCCCCCCCCCCCCCCCC (stereo not shown) [A1I18R1C18]	6.37E+03	
CCCCCCCC/C=C\CCCCCCCC(=O)N(CCCN(CC)CC)C(C(=O)NCCCCCCCCCCCCCCCCCC)C(C)C (stereo not shown) [A1I18R3C18-1]	9.29E+03	
CCCCCCCCCCCCCCCCCCNC(=O)C(C1CCCCC1)N(CCCN(CC)CC)C(=O)CCCCCCCCCCCCCCCCC (stereo not shown) [A23I18R3C18]	2.14E+03	
CCCCC/C=C\C/C=C\CCCCCCCC(=O)N(CCN1CCCCCC1)C(C(=O)NCCN(C)CCNC(=O)C(C1CCCCC1)N(CCN1CCCCCC1)C(=O)CCCCCCC/C=C\C/C=C\CCCCC)C1CCCCC1 (stereo not shown) [A23I4R13C18-2]		Fluorescence intensity of spleen (compounds of Example 2): 9.46E+03
CCCCCCCCCCCCC#CC#CCCCCCCCCC(=O)N(CCN(C)C)C(C(=O)NCCCCCCCCCCCCCCCCCC)C(C)C (stereo not shown) [A1I18R1C23]	9.51E+05	
CCCCCCCCCCCCCCCCCC(=O)N(CCC)C(C(=O)NCCN(C)CCNC(=O)C(C(CC)CCCC)N(CCC)C(=O)CCCCCCCCCCCCCCCCC)C(CC)CCCC (stereo not shown) [A4I4R21C18]		Fluorescence intensity of spleen (compounds of Example 2): 2.09E+04
CCCCCCCC/C=C\CCCCCCCC(=O)N(CCN1CCCCCC1)C(C(=O)NCCN(C)CCNC(=O)C(C1CCCCC1)N(CCN1CCCCCC1)C(=O)CCCCCCC/C=C\CCCCCCCC)C1CCCCC1 (stereo not shown) [A23I4R13C18-1]		Bioluminescence intensity (compounds of Example 2): 6.61E+02
CCCCC/C=C\C/C=C\CCCCCCCC(=O)N(CCCN(CC)CC)C(C(=O)NCCCCCCCCCCCCCCCCCC)C1CCCCC1 (stereo not shown) [A23I18R3C18-2]	4.86E+06	
CCCCCCCCCCCCCCSSCCC(=O)N(CCO)C(C(=O)NCCN(CCNC(=O)C(C(C)C)N(CCO)C(=O)CCSSCCCCCCCCCCCCCC)CCNC(=O)C(C(C)C)N(CCO)C(=O)CCSSCCCCCCCCCCCCCC)C(C)C (stereo not shown) [A1I5R22S19]		Fluorescence intensity of spleen (compounds of Example 3): 1.80E+06
